Data published in article PMC8592027, “Structure-Guided Design of D-Galactal Derivatives with High Affinity and Selectivity for the Galectin-8 N-Terminal Domain” (ACS Medicinal Chemistry Letters, 2021).

How the values were obtained:
[1] = biological target: T1, galectin-8C (C-terminal domain) (Homo sapiens, UniProt O00214); assay: Competitive fluorescence polarization assay, galectin-8C; assay type: binding; conditions: mean ± SEM of n = 4–8
T1 construct: galectins (N = N-terminal domain, C = C-terminal domain)
T1 sequence (O00214 187-317 limits assumed): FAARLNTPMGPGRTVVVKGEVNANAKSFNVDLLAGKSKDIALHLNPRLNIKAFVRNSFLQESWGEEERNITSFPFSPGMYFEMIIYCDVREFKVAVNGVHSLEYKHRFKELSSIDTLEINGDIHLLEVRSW

[2] = biological target: T2, galectin-4C (C-terminal domain) (Homo sapiens, UniProt P56470); assay: Competitive fluorescence polarization assay, galectin-4C; assay type: binding; conditions: mean ± SEM of n = 4–8
T2 construct: galectins (N = N-terminal domain, C = C-terminal domain); made in house
T2 sequence (P56470 194-323 limits assumed): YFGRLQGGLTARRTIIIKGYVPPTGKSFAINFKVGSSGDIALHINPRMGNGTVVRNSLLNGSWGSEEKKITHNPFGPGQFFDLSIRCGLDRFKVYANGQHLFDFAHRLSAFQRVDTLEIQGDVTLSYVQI
Method: (§1) 1. Competitive fluorescence polarization experiments:
(§2) Human galectins -1, -3, -4N, -4C, -7, -8N, -9N, and -9C were expressed and purified as previously described 30,41. Fluorescence polarisation experiments were performed using the PHERAstar FS plat e reader (software version 2.10 R3), and the fluorescence anisotropy of fluorescein tagged probes was measured by excitation at 485 nm and emission at 520 nm. The specific conditions for galectins -1, -3, -4N, -4C, -7, -8N, -9N, and -9C were kept as report ed30,41,42. The synthesised compounds were dissolved in pure DMSO at 20 mM concentration and diluted in PBS to 3-6 different concentrations, and each concentration was tested in duplicate. The highest inhibitor concentrations tested were 1.5 mM. The

[3] = biological target: T3, galectin-1 (Homo sapiens, UniProt P09382); assay: Competitive fluorescence polarization assay, galectin-1; assay type: binding; conditions: mean ± SEM of n = 4–8
T3 construct: made in house
T3 sequence (P09382 whole entry): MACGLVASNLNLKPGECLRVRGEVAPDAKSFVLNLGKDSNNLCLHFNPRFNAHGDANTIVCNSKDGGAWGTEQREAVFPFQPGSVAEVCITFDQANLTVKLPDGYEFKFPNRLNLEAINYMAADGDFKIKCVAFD
Method: as §1, §2

[4] = biological target: T4, galectin-7 (Homo sapiens, UniProt P47929); assay: Competitive fluorescence polarization assay, galectin-7; assay type: binding; conditions: mean ± SEM of n = 4–8
T4 construct: made in house
T4 sequence (P47929 whole entry): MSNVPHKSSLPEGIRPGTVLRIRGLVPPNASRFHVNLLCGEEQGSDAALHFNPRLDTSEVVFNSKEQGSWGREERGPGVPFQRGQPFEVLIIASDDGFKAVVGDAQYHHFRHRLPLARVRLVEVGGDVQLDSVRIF
Method: as §1, §2

[5] = test system: IL-6 secretion from MDA-MB-231 cells; assay: Multiplexed cytokine assay, IL-6 secretion; assay type: cell-based, human; conditions: 24 hours, vs untreated cells
Method: (§3) Figure 5 Effect of compounds 1 and 6a on the secretion of IL-6 and IL-8 expressed in pg/mL. The effects were measured after incubating the cells with the compounds at 10 and 100 μM. Compounds 1 and 6a reduce the secretion of IL-6 and IL-8 in a dose-dependent manner at 100 and 10 μM. Results shown are means ± SEM of three independent experiments. ns, not significant (p > 0.05); *p < 0.05 versus untreated controls.
(§4) Metabolic activity assay: […]
(§5) Briefly, the cells were treated with the selected compounds in 0.1% dimethyl sulfoxide (DMSO; vehicle), 0.1% DMSO (control vehicle), or medium (control) and seeded at a cell density of 5,500 cells/well (MDA-MB-231 cells) or 4 x 10^4 cells/well (K562 cells), 7000 cells/well (HepG2 cells) or 1 x 10^5 cells/well (human PBMCs) in duplicates (MDA-MB-231, K562, and […]) or triplicates for HepG2 cells (100 µL), in sterile 96-well plates. For the MDA-MB-231 and HepG2, the cells were left to adhere overnight before adding the compounds. The plates were then incubated for 24 hours (48 hours for HepG2), after which 15 µL of MTS reagent was added to each well. […]
(§6) HTX Multi-Mode; BioTek Instruments, Inc., VT, USA).
(§7) Multiplexed cytokine assay:
(§8) MDA-MB-231 cells were seeded in 96-well flat-bottom plates at a density of 2 x 10^4 cells/well in 100 µL of medium and allowed to adhere for 24 hours at 37 °C and 5% CO2. The medium was then replaced by a fresh medium containing the desired concentrations of compounds 1 and 6a, after which the cells were cells incubated again for 24 hours at 37 °C and 5% CO2. Cell-free supernatants were collected and stored at – 80 °C before the analysis. The cytokines secretion was assessed by BD Cytometric Bead Array Human inflammatory cytokine Kit (content: IL-1, IL-6, IL-8, IL-10, IL-12p). The flow cytometric analyses were performed on an Attune NxT flow cytometer (Thermo Fisher Scientific, Waltham, MA, USA). Standard curves were generated using recombinant cytokines provided in the kit, and the data were analyzed with FlowJo software (Tree Star, Inc., Ashland, OR). The results are expressed in pg/mL. Data are represented as means ± standard deviation (SD) from three representative independent experiments.
(§9) All experiments were performed at least twice, with average values expressed as means ± SD. All data were analyzed with the statistical software GraphPad Prism 8.0 (GraphPad Software, Inc., CA, USA). by one-way ANOVA followed with Dunnett’s multiple compar ison test. Differences were considered non-significant for p > 0.05, and significant (*) for p < 0.05.

[6] = test system: IL-8 secretion from MDA-MB-231 cells; assay: Multiplexed cytokine assay, IL-8 secretion; assay type: cell-based, human; conditions: 24 hours, vs untreated cells
Method: as §3, §4, §5, §6, §7, §8, §9

[7] = biological target: T5, galectin-9C (C-terminal domain) (Homo sapiens, UniProt O00182); assay: Competitive fluorescence polarization assay, galectin-9C; assay type: binding; conditions: mean ± SEM of n = 4–8
T5 construct: galectins (N = N-terminal domain, C = C-terminal domain); made in house
T5 sequence (O00182 227-355 limits assumed): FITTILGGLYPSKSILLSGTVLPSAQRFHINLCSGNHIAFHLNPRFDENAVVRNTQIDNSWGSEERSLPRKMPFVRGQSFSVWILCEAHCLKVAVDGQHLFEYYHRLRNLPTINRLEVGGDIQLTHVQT
Method: as §1, §2

[8] = biological target: T6, galectin-9N (N-terminal domain) (Homo sapiens, UniProt O00182); assay: Competitive fluorescence polarization assay, galectin-9N; assay type: binding; conditions: mean ± SEM of n = 4–8
T6 construct: galectins (N = N-terminal domain, C = C-terminal domain); made in house
T6 sequence (O00182 17-148 limits assumed): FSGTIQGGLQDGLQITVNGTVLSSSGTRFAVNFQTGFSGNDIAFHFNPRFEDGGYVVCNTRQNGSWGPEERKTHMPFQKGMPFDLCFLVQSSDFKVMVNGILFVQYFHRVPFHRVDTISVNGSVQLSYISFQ
Method: as §1, §2

[9] = biological target: T7, galectin-3 (Homo sapiens, UniProt P17931); assay: Competitive fluorescence polarization assay, galectin-3; assay type: binding; conditions: mean ± SEM of n = 4–8
T7 construct: made in house
T7 sequence (P17931 whole entry): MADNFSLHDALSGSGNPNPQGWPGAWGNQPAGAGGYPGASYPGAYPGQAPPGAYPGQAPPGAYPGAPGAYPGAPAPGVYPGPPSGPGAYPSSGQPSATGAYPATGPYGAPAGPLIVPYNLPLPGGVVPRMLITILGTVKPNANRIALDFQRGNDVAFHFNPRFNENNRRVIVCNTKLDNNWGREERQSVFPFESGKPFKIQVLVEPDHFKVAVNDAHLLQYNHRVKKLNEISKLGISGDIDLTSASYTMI
Method: as §1, §2

Kd [1]: 4000 ± 500 µM
Kd [2]: 1700 ± 150 µM
Kd [3]: 1300 ± 130 µM
Kd [4]: > 1500 µM
Kd [7]: > 1500 µM
Kd [8]: 1400 ± 57 µM
Kd [9]: 690 ± 30 µM
Structure (SMILES): Cn1c(CO[C@@H]2C=CO[C@H](CO)[C@@H]2O)nc2ccc(C(=O)O)cc21 [6a]
reduction in IL-6 secretion ([5]; 10 μM, effect not significant): about 15%
reduction of IL-6 secretion ([5]; 100 μM): about 65%
reduction in IL-8 secretion ([6]; 10 μM, effect not significant): ~20%
reduction of IL-8 secretion ([6]; 100 μM): about 55%
